This note sets out measurements from publication PMC6430017, “Structural and chemical insights into the covalent-allosteric inhibition of the protein kinase Akt” (Chemical Science, 2019).

What all share (experiment): SelectScreen Z'LYTE kinase profiling
Common to all, as to format: biochemical
What all share (conditions): ATP at apparent KM

Test [1] addresses PRKCA (PKC alpha) (Homo sapiens, UniProt P17252).
Test [2] concerns the target CDC42 BPB (MRCKB) (Homo sapiens, UniProt Q9Y5S2).
The target in test [3] is SYK (Homo sapiens, UniProt P43405).
Test [4] addresses MAPK1 (ERK2) (Homo sapiens, UniProt P28482).
Test [5] addresses T1, PRKX (Homo sapiens, UniProt P51817).
T1 sequence (P51817 1-358): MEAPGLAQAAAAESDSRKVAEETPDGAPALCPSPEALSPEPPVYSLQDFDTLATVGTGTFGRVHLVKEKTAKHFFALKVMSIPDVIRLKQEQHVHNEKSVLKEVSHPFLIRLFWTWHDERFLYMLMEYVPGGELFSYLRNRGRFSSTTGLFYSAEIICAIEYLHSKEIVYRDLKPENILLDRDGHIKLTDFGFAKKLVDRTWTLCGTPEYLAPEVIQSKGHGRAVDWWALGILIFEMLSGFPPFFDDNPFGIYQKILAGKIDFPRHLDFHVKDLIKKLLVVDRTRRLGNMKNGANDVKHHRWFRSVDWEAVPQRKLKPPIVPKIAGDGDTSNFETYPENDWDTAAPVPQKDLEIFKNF

Test [6] deals with PAK1 (Homo sapiens, UniProt Q13153).
Sequence of PAK1 (Q13153 whole entry): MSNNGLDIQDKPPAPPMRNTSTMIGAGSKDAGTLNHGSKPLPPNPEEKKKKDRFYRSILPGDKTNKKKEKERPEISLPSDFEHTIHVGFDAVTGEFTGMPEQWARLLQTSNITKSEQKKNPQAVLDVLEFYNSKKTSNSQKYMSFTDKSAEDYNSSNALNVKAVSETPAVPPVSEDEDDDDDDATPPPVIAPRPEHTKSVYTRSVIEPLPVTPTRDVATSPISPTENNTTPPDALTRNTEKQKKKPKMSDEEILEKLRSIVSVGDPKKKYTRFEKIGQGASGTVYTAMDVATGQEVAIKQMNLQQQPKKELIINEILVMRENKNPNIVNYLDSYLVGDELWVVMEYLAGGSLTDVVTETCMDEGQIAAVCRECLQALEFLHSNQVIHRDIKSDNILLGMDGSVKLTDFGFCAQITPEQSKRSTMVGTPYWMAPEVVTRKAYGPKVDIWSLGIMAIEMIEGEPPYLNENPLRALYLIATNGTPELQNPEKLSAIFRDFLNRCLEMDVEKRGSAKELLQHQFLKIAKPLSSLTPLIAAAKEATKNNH
For test [7], the target named is T2, STK3 (MST2) (Homo sapiens, UniProt Q13188).
T2 sequence (Q13188 1-491): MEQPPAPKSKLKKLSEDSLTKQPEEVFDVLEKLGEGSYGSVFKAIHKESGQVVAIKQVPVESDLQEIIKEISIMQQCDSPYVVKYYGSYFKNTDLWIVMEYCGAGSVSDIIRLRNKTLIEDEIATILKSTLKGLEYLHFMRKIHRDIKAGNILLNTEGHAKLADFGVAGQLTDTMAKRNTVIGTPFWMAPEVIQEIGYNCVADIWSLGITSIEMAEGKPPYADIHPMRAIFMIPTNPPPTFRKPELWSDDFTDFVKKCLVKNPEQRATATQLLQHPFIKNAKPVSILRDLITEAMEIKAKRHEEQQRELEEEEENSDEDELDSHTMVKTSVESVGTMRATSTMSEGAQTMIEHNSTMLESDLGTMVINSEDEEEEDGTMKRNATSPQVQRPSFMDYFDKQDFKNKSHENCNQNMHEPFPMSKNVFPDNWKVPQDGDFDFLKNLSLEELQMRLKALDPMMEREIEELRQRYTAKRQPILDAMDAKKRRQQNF

Test [8] addresses PDGFRA (PDGFR alpha) (Homo sapiens, UniProt P16234).
The target of test [9] is ROCK1 (Homo sapiens, UniProt Q13464).
Sequence of ROCK1 (Q13464 whole entry): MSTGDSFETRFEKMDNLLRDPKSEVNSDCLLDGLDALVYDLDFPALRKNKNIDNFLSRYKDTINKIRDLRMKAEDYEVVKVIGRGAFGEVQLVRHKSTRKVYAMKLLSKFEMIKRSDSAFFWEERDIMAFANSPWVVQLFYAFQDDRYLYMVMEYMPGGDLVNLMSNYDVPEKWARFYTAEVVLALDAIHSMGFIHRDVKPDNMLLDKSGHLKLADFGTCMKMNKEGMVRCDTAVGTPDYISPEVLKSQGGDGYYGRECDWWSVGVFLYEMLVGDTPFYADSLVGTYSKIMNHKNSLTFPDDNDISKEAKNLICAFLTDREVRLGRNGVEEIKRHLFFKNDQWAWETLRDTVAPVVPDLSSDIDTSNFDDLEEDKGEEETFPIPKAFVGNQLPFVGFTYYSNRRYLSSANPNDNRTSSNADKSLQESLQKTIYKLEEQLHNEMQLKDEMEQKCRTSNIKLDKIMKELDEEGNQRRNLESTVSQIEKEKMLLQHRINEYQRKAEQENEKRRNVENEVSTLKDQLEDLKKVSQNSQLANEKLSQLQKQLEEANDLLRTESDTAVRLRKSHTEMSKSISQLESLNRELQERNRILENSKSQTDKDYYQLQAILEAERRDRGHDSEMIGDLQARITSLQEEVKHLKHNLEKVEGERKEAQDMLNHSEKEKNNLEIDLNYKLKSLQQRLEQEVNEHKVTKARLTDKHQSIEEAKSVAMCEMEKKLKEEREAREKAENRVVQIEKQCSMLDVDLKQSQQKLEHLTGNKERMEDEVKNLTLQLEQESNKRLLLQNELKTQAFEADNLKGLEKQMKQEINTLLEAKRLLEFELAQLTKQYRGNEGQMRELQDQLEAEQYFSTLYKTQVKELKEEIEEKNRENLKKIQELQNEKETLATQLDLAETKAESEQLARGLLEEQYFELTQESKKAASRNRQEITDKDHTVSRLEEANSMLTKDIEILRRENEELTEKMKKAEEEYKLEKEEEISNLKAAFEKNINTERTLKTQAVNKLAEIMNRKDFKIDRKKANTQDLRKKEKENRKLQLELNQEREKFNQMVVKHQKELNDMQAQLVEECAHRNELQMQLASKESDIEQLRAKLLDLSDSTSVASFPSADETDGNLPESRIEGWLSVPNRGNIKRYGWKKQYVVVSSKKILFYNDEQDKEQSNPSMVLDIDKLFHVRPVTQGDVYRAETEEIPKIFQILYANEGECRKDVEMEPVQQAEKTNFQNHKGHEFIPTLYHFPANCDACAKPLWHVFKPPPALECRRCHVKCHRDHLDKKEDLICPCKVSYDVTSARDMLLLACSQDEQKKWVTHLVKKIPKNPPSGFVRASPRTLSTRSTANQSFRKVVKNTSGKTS
Test [10] concerns the target AMPK A2/B1/G1 (Homo sapiens, UniProt P54646).
Test [11] addresses T3, FLT3 (Homo sapiens, UniProt P36888).
T3 sequence (P36888 27-993): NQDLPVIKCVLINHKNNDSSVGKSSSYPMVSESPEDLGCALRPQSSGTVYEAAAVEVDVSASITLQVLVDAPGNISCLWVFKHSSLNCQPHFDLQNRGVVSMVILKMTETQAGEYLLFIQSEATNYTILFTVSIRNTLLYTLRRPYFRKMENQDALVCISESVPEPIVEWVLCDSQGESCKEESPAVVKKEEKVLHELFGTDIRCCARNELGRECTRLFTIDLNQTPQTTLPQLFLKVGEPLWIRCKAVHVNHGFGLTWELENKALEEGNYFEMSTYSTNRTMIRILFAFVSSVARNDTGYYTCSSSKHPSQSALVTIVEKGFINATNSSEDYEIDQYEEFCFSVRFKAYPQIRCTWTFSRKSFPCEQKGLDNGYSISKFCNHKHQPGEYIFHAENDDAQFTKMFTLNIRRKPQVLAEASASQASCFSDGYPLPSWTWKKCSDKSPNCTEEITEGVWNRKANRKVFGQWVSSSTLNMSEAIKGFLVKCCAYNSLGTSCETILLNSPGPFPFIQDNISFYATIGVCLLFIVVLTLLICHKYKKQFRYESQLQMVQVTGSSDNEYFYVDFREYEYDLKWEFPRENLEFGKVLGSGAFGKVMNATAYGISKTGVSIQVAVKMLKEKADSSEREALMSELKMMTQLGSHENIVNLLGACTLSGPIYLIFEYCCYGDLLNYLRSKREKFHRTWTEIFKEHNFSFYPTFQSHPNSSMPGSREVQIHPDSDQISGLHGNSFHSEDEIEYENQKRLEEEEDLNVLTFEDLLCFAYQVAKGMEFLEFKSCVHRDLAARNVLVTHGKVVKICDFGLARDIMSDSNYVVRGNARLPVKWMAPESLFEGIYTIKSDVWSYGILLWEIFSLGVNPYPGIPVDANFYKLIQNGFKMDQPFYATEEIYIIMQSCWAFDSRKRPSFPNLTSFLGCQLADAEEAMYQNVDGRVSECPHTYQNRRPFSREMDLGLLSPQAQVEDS

For test [12], the target named is CDC42 BPA (MRCKA) (Homo sapiens, UniProt Q5VT25).

Each structure is given as a SMILES string.

One may read the inhibition as the drop in the measured response relative to a control, in per cent.

Sequence of MAPK1 (ERK2) (P28482 whole entry): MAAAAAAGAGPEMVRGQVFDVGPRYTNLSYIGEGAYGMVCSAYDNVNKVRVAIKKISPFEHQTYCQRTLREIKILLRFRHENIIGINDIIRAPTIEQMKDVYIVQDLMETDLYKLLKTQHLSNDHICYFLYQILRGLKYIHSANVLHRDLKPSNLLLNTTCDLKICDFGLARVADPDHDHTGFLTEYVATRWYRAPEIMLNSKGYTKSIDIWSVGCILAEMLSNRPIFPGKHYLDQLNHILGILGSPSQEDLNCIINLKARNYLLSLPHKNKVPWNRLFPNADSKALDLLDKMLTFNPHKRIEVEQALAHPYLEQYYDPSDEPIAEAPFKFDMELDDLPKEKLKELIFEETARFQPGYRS
Sequence of CDC42 BPB (MRCKB) (Q9Y5S2 whole entry): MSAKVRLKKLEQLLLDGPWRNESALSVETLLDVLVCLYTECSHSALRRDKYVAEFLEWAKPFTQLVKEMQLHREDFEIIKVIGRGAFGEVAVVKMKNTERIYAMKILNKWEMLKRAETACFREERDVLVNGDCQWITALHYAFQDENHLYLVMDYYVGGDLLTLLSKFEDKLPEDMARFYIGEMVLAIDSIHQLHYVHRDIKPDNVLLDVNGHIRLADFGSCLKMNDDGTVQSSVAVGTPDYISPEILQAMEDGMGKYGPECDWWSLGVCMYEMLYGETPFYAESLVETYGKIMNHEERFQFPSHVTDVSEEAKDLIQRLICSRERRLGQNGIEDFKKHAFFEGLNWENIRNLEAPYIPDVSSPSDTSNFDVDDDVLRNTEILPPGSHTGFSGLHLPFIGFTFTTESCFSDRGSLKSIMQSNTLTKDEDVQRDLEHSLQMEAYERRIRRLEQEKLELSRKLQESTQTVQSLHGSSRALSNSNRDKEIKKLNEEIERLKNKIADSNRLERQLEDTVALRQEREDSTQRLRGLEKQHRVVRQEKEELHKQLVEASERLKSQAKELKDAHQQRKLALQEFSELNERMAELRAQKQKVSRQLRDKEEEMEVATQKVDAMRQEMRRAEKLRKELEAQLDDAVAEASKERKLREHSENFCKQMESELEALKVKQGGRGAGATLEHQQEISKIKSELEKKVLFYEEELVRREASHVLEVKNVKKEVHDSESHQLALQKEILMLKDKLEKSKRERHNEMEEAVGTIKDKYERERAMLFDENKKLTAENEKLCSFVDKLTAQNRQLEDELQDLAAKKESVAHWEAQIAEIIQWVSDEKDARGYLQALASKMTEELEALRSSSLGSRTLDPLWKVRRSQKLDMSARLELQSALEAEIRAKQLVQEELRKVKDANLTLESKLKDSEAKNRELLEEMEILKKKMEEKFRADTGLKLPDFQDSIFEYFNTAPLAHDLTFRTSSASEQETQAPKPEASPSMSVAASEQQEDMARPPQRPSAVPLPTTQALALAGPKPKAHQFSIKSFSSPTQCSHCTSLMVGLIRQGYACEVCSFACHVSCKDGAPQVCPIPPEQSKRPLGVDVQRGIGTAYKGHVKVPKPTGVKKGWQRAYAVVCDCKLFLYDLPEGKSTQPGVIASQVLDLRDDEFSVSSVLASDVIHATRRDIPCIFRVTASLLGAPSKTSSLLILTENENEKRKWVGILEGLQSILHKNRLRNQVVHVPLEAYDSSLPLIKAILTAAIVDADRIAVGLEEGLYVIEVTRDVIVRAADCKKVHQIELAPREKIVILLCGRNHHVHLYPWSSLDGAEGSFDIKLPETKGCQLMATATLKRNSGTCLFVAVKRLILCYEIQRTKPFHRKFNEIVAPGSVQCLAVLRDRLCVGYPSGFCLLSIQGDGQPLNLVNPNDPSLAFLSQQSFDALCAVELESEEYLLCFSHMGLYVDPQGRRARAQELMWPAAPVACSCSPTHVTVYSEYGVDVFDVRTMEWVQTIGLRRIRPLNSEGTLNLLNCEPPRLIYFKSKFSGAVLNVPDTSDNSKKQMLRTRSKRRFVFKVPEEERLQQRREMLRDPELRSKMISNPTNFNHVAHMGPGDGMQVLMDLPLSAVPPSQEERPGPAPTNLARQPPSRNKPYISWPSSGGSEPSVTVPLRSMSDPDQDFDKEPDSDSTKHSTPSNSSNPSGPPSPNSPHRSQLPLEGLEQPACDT
Sequence of PDGFRA (PDGFR alpha) (P16234 24-1089): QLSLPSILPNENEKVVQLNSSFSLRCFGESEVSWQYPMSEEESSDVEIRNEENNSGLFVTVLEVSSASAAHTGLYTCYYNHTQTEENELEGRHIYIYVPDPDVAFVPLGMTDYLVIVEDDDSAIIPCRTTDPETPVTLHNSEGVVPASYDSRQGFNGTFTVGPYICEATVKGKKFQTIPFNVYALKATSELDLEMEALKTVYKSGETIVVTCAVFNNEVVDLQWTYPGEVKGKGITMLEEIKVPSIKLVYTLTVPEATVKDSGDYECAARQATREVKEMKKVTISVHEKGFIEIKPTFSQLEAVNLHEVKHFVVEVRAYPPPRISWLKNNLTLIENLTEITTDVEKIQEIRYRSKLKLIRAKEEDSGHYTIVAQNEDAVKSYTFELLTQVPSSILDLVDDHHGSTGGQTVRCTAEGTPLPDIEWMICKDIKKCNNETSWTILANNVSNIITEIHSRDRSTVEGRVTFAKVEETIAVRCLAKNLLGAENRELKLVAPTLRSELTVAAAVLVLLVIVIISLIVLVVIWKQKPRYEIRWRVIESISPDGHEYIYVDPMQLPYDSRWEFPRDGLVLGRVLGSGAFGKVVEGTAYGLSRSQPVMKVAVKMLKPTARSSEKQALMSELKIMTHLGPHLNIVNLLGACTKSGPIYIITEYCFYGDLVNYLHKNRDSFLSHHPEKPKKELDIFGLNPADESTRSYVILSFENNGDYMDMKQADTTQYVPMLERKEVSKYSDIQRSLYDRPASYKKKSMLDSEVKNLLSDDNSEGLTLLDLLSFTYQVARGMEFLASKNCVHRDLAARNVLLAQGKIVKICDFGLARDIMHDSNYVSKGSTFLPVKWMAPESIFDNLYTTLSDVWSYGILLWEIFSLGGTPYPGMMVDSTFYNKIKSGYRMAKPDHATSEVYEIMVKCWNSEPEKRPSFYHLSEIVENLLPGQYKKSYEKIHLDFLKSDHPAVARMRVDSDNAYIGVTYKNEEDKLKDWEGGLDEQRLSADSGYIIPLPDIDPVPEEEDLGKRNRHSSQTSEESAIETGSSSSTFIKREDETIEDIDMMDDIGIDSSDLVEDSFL

`C=CC(=O)Nc1ccc2c(c1)n(C1CCN(Cc3ccc(-c4nc5cc[nH]c(=O)c5cc4-c4ccccc4)cc3)CC1)c(=O)n2C` [24b]: the inhibition at 1 µM in test [1] is 23%; in test [2], 3%; in test [3], 4%; in test [4], 2%; in test [5], -1%; in [6], 12%. Moreover, the inhibition at 1 µM in [7] was -13%; in [8], -5%; in [9], 16%; in test [10], 20%; in test [11], 7%; in test [12] it was 3%.

`C=CC(=O)Nc1cccc(C(=O)NC2CCN(Cc3ccc(-c4nc5cc[nH]c(=O)c5cc4-c4ccccc4)cc3)CC2)c1` [30b]: the inhibition at 1 µM is 27% in test [1]; -27% in test [2]; 15% in test [3]; 13% in [4]; -6% in test [5]; 4% in [6]. In addition, the inhibition at 1 µM in test [7] was -19%; in test [8], -7%; in test [9] it was 34%; in test [10], 40%; in [11], 14%; in test [12], 2%.

For `C=CC(=O)Nc1cc(NC(=O)NC2CCN(Cc3ccc(-c4nc5cc[nH]c(=O)c5cc4-c4ccccc4)cc3)CC2)ccc1Cl` [compound 27], the inhibition at 1 µM in test [1] was 16%; in test [2], 12%; in [3], 5%; in test [4] it was 11%; in test [5] it was 3%; in [6], -2%. The inhibition at 1 µM in test [7] is -3%; in [8], 0%; in test [9], 54%; in test [10], 77%; in test [11], 14%; in test [12], 8%.
